PMC9887206, “Cationic biopolymer decorated Asiatic Acid and Centella asiatica extract incorporated liposomes for treating early-stage Alzheimer’s disease: An In-vitro and In-vivo investigation” (F1000Research, 2022)

What was measured:
[1] = In-vitro drug release, Franz diffusion cell with dialysis membrane; format: physicochemical; settings: in around 10 hours
Method: The % drug release from CLCAE and CLAA were measured through Franz diffusion cell using sigma dialysis membrane and the release rate was compared with AA and CAE. 1 mL sample (100 mg/mL) was kept on one side, while the other part of the membrane was filled with the acidic buffer pH 1.2 (200 mL) dissolution media for two hours. It was then replaced with phosphate buffer pH 7.2 (2–24 hours) with 0.25% w/v sodium lauryl sulphate as two separate media to simulate the stomach and intestinal conditions. The media were sustained at the temperature of 37°C on a magnetic stirrer. A 5 mL sample was withdrawn with the specific intervals and the condition of the sink was kept constant by refilling the same volume of media. Samples were analysed and compared using RP-HPLC at 210 nm. To assess the drug release strategy from the optimised CLAA, the data were fitted to various in vitro kinetic release models like Korsmeyer-Peppas, Higuchi, Zero and First Order models. ^, [36]

[2] = Oral bioavailability study, AA in rat serum; format: in vivo, wistar rats
Method: The sum of drug availability after oral intake of AA, CLCAE, and CLAA was performed on three groups of 150-200g wistar rats (n=6). Prior to the procedure, the animals underwent an overnight fast with unlimited access to water. Group I was treated with a single dose of AA (100 mg/kg,p.o.) whereas group II, and III animals received single dose of optimised CLCAE and CLAA (~100 mg/k.g AA, p.o.), respectively. After the dosing, the animals were partially anesthetised using […], from the retro-orbital plexus 1 mL of blood samples were collected in centrifuge tubes at a predetermined time of up to 8 h. To isolate the contents, the serum sample was spun up at 3000 rpm for 10 min. The AA was quantified by RP-HPLC.
Initially, the mixture of 1 mL serum and 5 mL methanol were taken in a volumetric flask at room temperature. The sample was properly mixed before being heated for 30 min at 55°C. After that, a 10 mL flask was made up with methanol and centrifugation for 30 min at 5000 rpm (Remi Elektrotechnik Ltd. India). 20 μL of filtered supernatant was taken for analysis.
Depends on plasma concentration-time curve parameters, the C max and T max of CLCAE and CLAA were analysed. The pharmacokinetic parameters were successfully interpreted through PK/PD computer software version 4.1, USA, which includes measurement drug plasma concentration from zero to last measured sample (AUC 0 -t) and from zero to infinity (AUC 0-∞) measurement of drug elimination half-life (K 1/2el) and elimination rate constant (K el) clearance (Cl) and volume of distribution (V d). The relative bioavailability (F) of both the formulations was determined using the following formula. F=Total amount of drug absorbed from formulation(Amaxformulation)/Total amount of drug absorbed from pureAAAmaxpureAA×100 F=VdXKelXAUC0−∞formulation/VdXKelXAUC0−∞pureAA×100

[3] = Ex vivo drug permeation, non-everted gut sac; format: in vitro ADME, rats; settings: throughout 8 hours, non-everted rat intestinal sac
Method: The drug intestinal permeation studies of both the optimised formulations were determined using non-everted gut sac procedure. ^, [40] The rats were sacrificed and small intestine was treated with oxygenated saline. The intestine was split into […] sacs that were 8 cm long and loaded with optimised CLCAE and CLAA (~100 mg AA). The thread was used to bind the sac's ends and located in a conical flask filled with ringer’s solution of pH 9 (10 ml). 37°C temperature was kept constant in a water bath shaker at 75 rpm with 5% CO 2 aeration. Every 20 min, for a maximum of 8 h, the samples were removed and substituted with the fresh media. RP-HPLC was used to analyse the screened sample.

[4] = cited from earlier work
[5] = In-vitro antioxidant activity (DPPH inhibition); format: biochemical; settings: at 50 μg/mL, n ≥ 3
Method: The prepared formulations' and AA's abilities to neutralise free radicals were determined in vitro and compared with standard ascorbic acid. In this method, free radical DPPH (2,2-diphenyl-1-picrylhydrazyl) was selected as described by Jamuna S. et al. 1.5 mL of 0.1mM free radial DPPH was treated with 3.5mL of 10 to 50 μg/mL concentrated methanolic solution of AA, CAE, optimised CLCAE, and CLAA. The absorbance of all the samples was measured at 518 nm through ELISA plate reader (version AM-2100, USA). The percentage of DPPH inhibition was measured through the formula. %Inhibition of DPPH=Absorptioncontrol−Absorptionsample/Absorptioncontrol×100

[6] = rat p.o; cited from earlier work
[7] = Wistar, single oral dose ~100 mg/kg AA

With C[C@H]1[C@H](C)CC[C@]2(C(=O)O)CC[C@]3(C)C(=CC[C@@H]4[C@@]5(C)C[C@@H](O)[C@H](O)[C@@](C)(CO)[C@@H]5CC[C@]43C)[C@H]12 [AA, Asiatic acid] the “In vitro drug release” value [1] was 65.34%, the Tmax ([2]; Wistar, 100 mg/kg, single oral dose, read-out: Time of maximum serum concentration) was 4 h and the AUC(0-t) [2, 7] was 40500 ± 1160 ng·h/mL. The Cmax [2, 7] was 3430 ± 120 ng/mL, the half-life ([2]; Wistar, single oral dose ~100 mg/kg AA, read-out: Elimination half-life (t1/2el) (converted)) was 1.97 ± 0.1 h and the k el ([2]; Wistar, single oral dose ~100 mg/kg AA, read-out: Elimination rate constant (Kel) (converted)) was 0.000142 s⁻¹. The Maximum serum concentration ([2]; single oral dose) was 3.43 ± 0.12 µg/mL, the “Clearance (Cl)” value ([2]; single oral dose ~100 mg/kg AA) was 0.55 ± 0.002 L h ^−1 and the “Volume of distribution (Vd)” value ([2]; single oral dose ~100 mg/kg AA) was 1.62 ± 0.26 L. The “Amount of drug permeated (ex vivo)” value [3] was 30.90%, the Solubility in water [4] was “insoluble in water” and the BCS class ([4]; poor aqueous solubility and permeability) was “BCS IV”. For the same molecule, the “Percentage of inhibition of DPPH” value [5] was 65.4 ±1.2%.
With O=C1O[C@H]([C@@H](O)CO)C(O)=C1O [ascorbic acid, reference compound] the “Percentage of inhibition of DPPH” value [5] was 90.75 ± 1.45%.
In the case of ClCCl [dichloromethane], the LD50 [6] is given as 1200 mg/kg.
